One assay has as its target T1, Nav1.7 (or SCN9A) channel (Homo sapiens, UniProt Q15858).
T1 construct: expressed in transfected cells
Kind of assay: Nav1.7 (hSCN9A) electrophysiology assay, PatchXpress platform. The format is cell-based. Conditions: estimated IC50 from single point electrophysiology data, HEK cells stably expressing hSCN9A, held at V1/2 of inactivation, read-out: Nav1.7 EIC50. A digest of the protocol: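 HEK cells stably expressing hSCN9A were recorded by whole-cell voltage clamp, including on PatchXpress, at 22–24°C with extracellular solution at pH 7.4. A 20 msec step to 0 mV followed an 8 s conditioning prepulse to the empirically determined inactivation V1/2. Inhibition was taken from current amplitude before vs after compound.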
T1 sequence (Q15858 whole entry): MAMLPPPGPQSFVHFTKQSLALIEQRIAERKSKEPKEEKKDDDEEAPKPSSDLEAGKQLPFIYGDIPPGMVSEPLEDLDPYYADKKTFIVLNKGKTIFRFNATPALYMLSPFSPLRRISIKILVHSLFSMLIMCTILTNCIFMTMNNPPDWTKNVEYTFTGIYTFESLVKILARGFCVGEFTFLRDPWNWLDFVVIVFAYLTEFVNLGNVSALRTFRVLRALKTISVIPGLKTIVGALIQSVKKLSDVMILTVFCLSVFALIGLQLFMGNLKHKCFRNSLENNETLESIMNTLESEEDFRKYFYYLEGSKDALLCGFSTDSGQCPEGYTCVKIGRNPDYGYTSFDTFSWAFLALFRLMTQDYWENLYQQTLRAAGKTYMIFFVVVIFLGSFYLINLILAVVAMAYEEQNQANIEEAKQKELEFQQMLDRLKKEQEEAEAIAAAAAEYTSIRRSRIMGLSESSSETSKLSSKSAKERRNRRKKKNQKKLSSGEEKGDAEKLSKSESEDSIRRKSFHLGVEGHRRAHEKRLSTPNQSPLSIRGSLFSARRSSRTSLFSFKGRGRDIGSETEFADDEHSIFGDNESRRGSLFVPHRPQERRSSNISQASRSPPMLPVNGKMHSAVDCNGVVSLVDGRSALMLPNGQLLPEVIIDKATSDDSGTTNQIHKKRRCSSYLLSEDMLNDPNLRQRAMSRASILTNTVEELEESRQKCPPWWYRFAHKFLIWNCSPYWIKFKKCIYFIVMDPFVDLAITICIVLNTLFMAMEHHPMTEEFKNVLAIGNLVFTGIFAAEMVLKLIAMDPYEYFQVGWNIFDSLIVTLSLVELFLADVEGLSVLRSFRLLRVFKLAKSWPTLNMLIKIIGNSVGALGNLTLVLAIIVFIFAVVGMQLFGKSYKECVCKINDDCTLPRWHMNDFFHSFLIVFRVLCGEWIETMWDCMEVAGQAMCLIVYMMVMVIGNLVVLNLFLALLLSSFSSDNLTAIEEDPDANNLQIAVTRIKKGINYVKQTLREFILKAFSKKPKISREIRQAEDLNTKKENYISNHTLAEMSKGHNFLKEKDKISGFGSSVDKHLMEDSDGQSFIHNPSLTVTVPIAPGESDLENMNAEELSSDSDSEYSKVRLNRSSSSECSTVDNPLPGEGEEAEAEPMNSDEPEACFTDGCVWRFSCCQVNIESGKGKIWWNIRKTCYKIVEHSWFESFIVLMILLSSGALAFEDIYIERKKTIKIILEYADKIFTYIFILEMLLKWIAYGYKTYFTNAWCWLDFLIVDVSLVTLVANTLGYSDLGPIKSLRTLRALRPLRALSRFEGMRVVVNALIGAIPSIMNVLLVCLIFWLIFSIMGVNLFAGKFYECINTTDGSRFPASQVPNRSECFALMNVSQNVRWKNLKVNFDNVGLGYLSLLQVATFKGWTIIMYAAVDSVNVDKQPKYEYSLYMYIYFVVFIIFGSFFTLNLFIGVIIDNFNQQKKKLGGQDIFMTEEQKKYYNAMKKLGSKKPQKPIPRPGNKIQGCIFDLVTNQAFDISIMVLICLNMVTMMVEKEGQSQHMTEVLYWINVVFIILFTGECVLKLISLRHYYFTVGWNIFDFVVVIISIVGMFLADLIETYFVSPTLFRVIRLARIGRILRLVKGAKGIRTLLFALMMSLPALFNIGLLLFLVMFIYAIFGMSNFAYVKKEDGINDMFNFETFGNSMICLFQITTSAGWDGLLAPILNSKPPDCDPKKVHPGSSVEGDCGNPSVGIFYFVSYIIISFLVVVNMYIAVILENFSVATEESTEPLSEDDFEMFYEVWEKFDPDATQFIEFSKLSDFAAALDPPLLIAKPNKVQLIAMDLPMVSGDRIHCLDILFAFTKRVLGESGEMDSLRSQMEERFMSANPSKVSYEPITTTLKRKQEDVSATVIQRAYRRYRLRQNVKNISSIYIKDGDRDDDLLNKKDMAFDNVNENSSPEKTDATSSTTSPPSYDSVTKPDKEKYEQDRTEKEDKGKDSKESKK
On to `CS(=O)(=O)NC(=O)c1cc(F)c(OCc2cccc3ccccc23)cc1F` [Example 194, 2,5-difluoro-N-(methylsulfonyl)-4-(1-naphthylmethoxy)benzamide], for which the IC50 was 1700 nM.

As to `CS(=O)(=O)NC(=O)c1cc(F)c(OCc2cccc(F)c2)cc1F` [Example 195, 2,5-difluoro-4-[(3-fluorobenzyl)oxy]-N-(methylsulfonyl)benzamide], the IC50 was above 3000 nM.

Consider `Cc1ccc(COc2cc(F)c(C(=O)NS(C)(=O)=O)cc2F)cc1` [Example 196, 2,5-difluoro-4-[(4-methylbenzyl)oxy]-N-(methylsulfonyl)benzamide], for which the IC50 was above 1000 nM.

With `CS(=O)(=O)NC(=O)c1cc(F)c(OCC2CCC2)cc1F` [Example 197, 4-(cyclobutylmethoxy)-2,5-difluoro-N-(methylsulfonyl)benzamide], the IC50 was above 1000 nM.

In the case of `COc1ccc(COc2cc(F)c(C(=O)NS(C)(=O)=O)cc2F)cc1` [Example 198, 2,5-difluoro-4-[(4-methoxybenzyl)oxy]-N-(methylsulfonyl)benzamide], the IC50 is above 1000 nM.

On to `CS(=O)(=O)NC(=O)c1cc(F)c(OCc2ccccc2F)cc1F` [Example 199, 2,5-difluoro-4-[(2-fluorobenzyl)oxy]-N-(methylsulfonyl)benzamide], for which the IC50 was 2400 nM.

Consider `COc1cc(C)ccc1COc1cc(F)c(C(=O)NS(C)(=O)=O)cc1F` [Example 200, 2,5-difluoro-4-[(2-methoxy-4-methylbenzyl)oxy]-N-(methylsulfonyl)benzamide], for which the IC50 was 5000 nM.

With `COc1cc(COc2cc(F)c(C(=O)NS(C)(=O)=O)cc2F)cc(OC)c1` [Example 201, 4-[(3,5-dimethoxybenzyl)oxy]-2,5-difluoro-N-(methylsulfonyl)benzamide], the IC50 was above 1000 nM.

As for `COc1ccc(OC)c(COc2cc(F)c(C(=O)NS(C)(=O)=O)cc2F)c1` [Example 202, 4-[(2,5-dimethoxybenzyl)oxy]-2,5-difluoro-N-(methylsulfonyl)benzamide], the IC50 was 11000 nM.

Consider `Cc1ccc(COc2cc(F)c(C(=O)NS(C)(=O)=O)cc2F)cc1C` [Example 203, 4-[(3,4-dimethylbenzyl)oxy]-2,5-difluoro-N-(methylsulfonyl)benzamide], for which the IC50 is 1700 nM.

As to `CS(=O)(=O)NC(=O)c1ccc(OCc2ccc(F)cc2F)cc1` [Example 204, 4-[(2,4-difluorobenzyl)oxy]-N-(methylsulfonyl)benzamide], the IC50 was 3600 nM.

Turning to `COc1ccc(F)c(COc2cc(F)c(C(=O)NS(C)(=O)=O)cc2F)c1` [Example 205, 2,5-difluoro-4-[(2-fluoro-5-methoxybenzyl)oxy]-N-(methylsulfonyl)benzamide], the IC50 was above 3000 nM.

`COc1cccc(COc2cc(F)c(C(=O)NS(C)(=O)=O)cc2F)c1OC` [Example 206, 4-[(2,3-dimethoxybenzyl)oxy]-2,5-difluoro-N-(methylsulfonyl)benzamide]: the IC50 is above 1000 nM.

For `CS(=O)(=O)NC(=O)c1cc(F)c(OCc2cccc(Cl)c2)cc1F` [Example 207, 4-[(3-chlorobenzyl)oxy]-2,5-difluoro-N-(methylsulfonyl)benzamide], the IC50 was above 300 nM.

For the molecule `CS(=O)(=O)NC(=O)c1ccc(OCc2cc(F)ccc2F)cc1` [Example 208, 4-[(2,5-difluorobenzyl)oxy]-N-(methylsulfonyl)benzamide], the IC50 was 2600 nM.

Consider `COc1ccc(C)cc1COc1ccc(C(=O)NS(C)(=O)=O)cc1` [Example 210, 4-[(2-methoxy-5-methylbenzyl)oxy]-N-(methylsulfonyl)benzamide], for which the IC50 was above 1000 nM.

Take `CS(=O)(=O)NC(=O)c1cc(F)c(OCc2ccc(OC(F)F)cc2)cc1F` [Example 211, 4-{[4-(difluoromethoxy)benzyl]oxy}-2,5-difluoro-N-(methylsulfonyl)benzamide]: the IC50 was 2600 nM.

Consider `CS(=O)(=O)NC(=O)c1cc(F)c(OCc2ccc(OC(F)(F)F)cc2)cc1F` [Example 212, 2,5-difluoro-N-(methylsulfonyl)-4-{[4-(trifluoromethoxy)benzyl]oxy}benzamide], for which the IC50 is above 300 nM.

For the molecule `CS(=O)(=O)NC(=O)c1ccc(OCc2ccc(Cl)cc2F)cc1` [Example 213, 4-[(4-chloro-2-fluorobenzyl)oxy]-N-(methylsulfonyl)benzamide], the IC50 is above 300 nM.

Consider `CS(=O)(=O)NC(=O)c1cc(F)c(OCc2cccc(Cl)c2Cl)cc1F` [Example 214, 4-[(2,3-dichlorobenzyl)oxy]-2,5-difluoro-N-(methylsulfonyl)benzamide], for which the IC50 was 3800 nM.

As for `COc1cc(F)ccc1COc1cc(F)c(C(=O)NS(C)(=O)=O)cc1F` [Example 215, 2,5-difluoro-4-[(4-fluoro-2-methoxybenzyl)oxy]-N-(methylsulfonyl)benzamide], the IC50 is above 1000 nM.

Regarding `CS(=O)(=O)NC(=O)c1cc(F)c(OCc2ccc(F)cc2)cc1F` [Example 216, 2,5-difluoro-4-[(4-fluorobenzyl)oxy]-N-(methylsulfonyl)benzamide], the IC50 was 3800 nM.

Regarding `Cc1cccc(COc2cc(F)c(C(=O)NS(C)(=O)=O)cc2F)c1` [Example 217, 2,5-difluoro-4-[(3-methylbenzyl)oxy]-N-(methylsulfonyl)benzamide], the IC50 was above 1000 nM.

`CS(=O)(=O)NC(=O)c1cc(F)c(OCc2ccccc2OC(F)F)cc1F` [Example 218, 4-{[2-(difluoromethoxy)benzyl]oxy}-2,5-difluoro-N-(methylsulfonyl)benzamide]: the IC50 is 3400 nM.

Consider `COc1ccc(C)cc1COc1cc(F)c(C(=O)NS(C)(=O)=O)cc1F` [Example 219, 2,5-difluoro-4-[(2-methoxy-5-methylbenzyl)oxy]-N-(methylsulfonyl)benzamide], for which the IC50 was above 1000 nM.

Consider `CS(=O)(=O)NC(=O)c1cc(F)c(OCc2ccccc2C(F)(F)F)cc1F` [Example 220, 2,5-difluoro-N-(methylsulfonyl)-4-{[2-(trifluoromethyl)benzyl]oxy}benzamide], for which the IC50 was 1700 nM.

With `CS(=O)(=O)NC(=O)c1cc(F)c(OCc2ccccc2Cl)cc1F` [Example 221, 4-[(2-chlorobenzyl)oxy]-2,5-difluoro-N-(methylsulfonyl)benzamide], the IC50 is 1800 nM.

For the molecule `COc1cc(COc2cc(F)c(C(=O)NS(C)(=O)=O)cc2F)ccc1C` [Example 222, 2,5-difluoro-4-[(3-methoxy-4-methylbenzyl)oxy]-N-(methylsulfonyl)benzamide], the IC50 was 3600 nM.

Regarding `COc1ccc(Cl)cc1COc1ccc(C(=O)NS(C)(=O)=O)cc1` [Example 223, 4-[(5-chloro-2-methoxybenzyl)oxy]-N-(methylsulfonyl)benzamide], the IC50 was above 300 nM.

On to `CS(=O)(=O)NC(=O)c1cc(F)c(OCc2cccc(OC(F)F)c2)cc1F` [Example 224, 4-{[3-(difluoromethoxy)benzyl]oxy}-2,5-difluoro-N-(methylsulfonyl)benzamide], for which the IC50 is above 300 nM.

With `CS(=O)(=O)NC(=O)c1cc(F)c(OCc2ccc(Cl)cc2)cc1F` [Example 225, 4-[(4-chlorobenzyl)oxy]-2,5-difluoro-N-(methylsulfonyl)benzamide], the IC50 was above 300 nM.

As to `CCOc1ccccc1COc1cc(F)c(C(=O)NS(C)(=O)=O)cc1F` [Example 226, 4-[(2-ethoxybenzyl)oxy]-2,5-difluoro-N-(methylsulfonyl)benzamide], the IC50 is above 1000 nM.

With `CS(=O)(=O)NC(=O)c1cc(F)c(OCc2ccc3ccccc3c2)cc1F` [Example 227, 2,5-difluoro-N-(methylsulfonyl)-4-(2-naphthylmethoxy)benzamide], the IC50 is 940 nM.

In the case of `Cc1ccc(COc2cc(F)c(C(=O)NS(C)(=O)=O)cc2F)cc1Cl` [Example 228, 4-[(3-chloro-4-methylbenzyl)oxy]-2,5-difluoro-N-(methylsulfonyl)benzamide], the IC50 is 1200 nM.

In the case of `CS(=O)(=O)NC(=O)c1cc(F)c(OCc2cc(F)ccc2F)cc1F` [Example 229, 4-[(2,5-difluorobenzyl)oxy]-2,5-difluoro-N-(methylsulfonyl)benzamide], the IC50 is above 1000 nM.

With `COc1ccc(Cl)cc1COc1cc(F)c(C(=O)NS(C)(=O)=O)cc1F` [Example 230, 4-[(5-chloro-2-methoxybenzyl)oxy]-2,5-difluoro-N-(methylsulfonyl)benzamide], the IC50 was 2200 nM.

For the molecule `CS(=O)(=O)NC(=O)c1cc(F)c(OCc2ccc(Cl)cc2F)cc1F` [Example 231, 4-[(4-chloro-2-fluorobenzyl)oxy]-2,5-difluoro-N-(methylsulfonyl)benzamide], the IC50 is 1400 nM.

In the case of `CS(=O)(=O)NC(=O)c1cc(F)c(OCc2ccc(F)cc2Cl)cc1F` [Example 232, 4-[(2-chloro-4-fluorobenzyl)oxy]-2,5-difluoro-N-(methylsulfonyl)benzamide], the IC50 was 2100 nM.

As to `COc1ccccc1COc1cc(F)c(C(=O)NS(C)(=O)=O)cc1F` [Example 233, 2,5-difluoro-4-[(2-methoxybenzyl)oxy]-N-(methylsulfonyl)benzamide], the IC50 was above 1000 nM.

In another assay the target is T1, Nav1.7 (or SCN9A) channel. The experiment in a line: Nav1.7 (hSCN9A) electrophysiology assay, Ionworks Quattro platform. As to conditions: IW: Ionworks Quattro automated electrophysiological platform; HEK cells stably expressing hSCN9A; read-out: Nav1.7 EIC50. In kind it is cell-based. Background: In patch-clamp work, channel activity is measured electrically.
Take `COc1ccc(OCc2ccc(C(=O)NS(C)(=O)=O)cc2)cc1` [Example 31, 4-[(4-Methoxyphenoxy)methyl]-N-(methylsulfonyl)benzamide]: the IC50 is 22 µM.

The values above are taken from patent publication US9096500B2, “Acyl sulfonamide compounds” (Pfizer Limited, priority 2010, dated 2015).
